BindingDB's records for doi:10.1016/j.ejmech.2019.111807 (Universitat De Barcelona, 2020)

Test: Bioactivation in CYP1A1 (unknown origin) transfected CHO cells assessed as CYP1A1-mediated drug activation by measuring reduction in cell viability

| Structure (SMILES) | IC50 [nM] |
| --- | --- |
| CCCCCCc1c2c(c(C)c3c1C(=O)OC3)Oc1ccccc1O2 | 2600 |
| CCCCc1c2c(c(C)c3c1C(=O)OC3)Oc1ccccc1O2 | 400 |
